Assay results published in the NIST ThermoML archive (doi:10.1016/j.fluid.2014.04.025).
± gives the expanded uncertainty stated by the source.

Tests used:
[1] = Liquid; for mass density: 293.15 K, 101.33 kPa, Densimeter; for Normal boiling temperature: Ebulliometric method (Recirculating still)
[2] = refractive index (Na D-line) (dimensionless); conditions: 293.15 K; 101.33 kPa; Liquid; Standard Abbe refractometry

Row | Structure (SMILES) | mass density [1] [kg/m3] | Normal boiling temperature [1] [°C] | refractive index [2]
1 | COCCO [2-methoxyethan-1-ol] | 964.74 ± 0.12 | 124.48 ± 0.2 | 1.40234 ± 0.00034
2 | C[S+](C)[O-] [dimethyl sulfoxide] | 1100.36 ± 0.14 | 189.03 ± 0.2 | 1.47987 ± 0.00034
3 | Cc1ccccc1 [toluene] | 867.02 ± 0.11 | 110.58 ± 0.2 | 1.49678 ± 0.00033
